Data reported in patent publication US20100056525A1, “5- AND 6- SUBSTITUTED BENZIMIDAZOLE THIOPHENE COMPOUNDS” (priority 2006, published 2010).

Legend:
PLK1 kinase domain = biological target: T1, PLK1 kinase domain (Homo sapiens, UniProt P53350); experiment: Assay for Inhibition of PLK1 (SPA, 33P-ATP); format: biochemical; conditions: 2 nM PLK1 kinase domain, 1 μM ATP, 22° C.; read-out: PLK1 pIC50 (converted)
T1 construct: made in house; host or cells: baculovirus infected T. ni cells
Experimental: A. Preparation of 6× N-Terminal His-Tagged PLK Kinase Domain
All procedures were performed at 4° C. Cells were lysed in 50 mM HEPES, 200 mM NaCl, 50 mM imidazole, 5% glycerol; pH 7.5. The homogenate was centrifuged at 14K rpm in a SLA-1500 rotor for 1 hr and the supernatant filtered through a 1.2 micron filter. The supernatant was loaded onto a Nickel chelating Sepharose (Amersham Pharmacia) column and washed with lysis buffer. Protein was eluted using 20%, 30% and 100% buffer B steps where buffer B was 50 mM HEPES, 200 mM NaCl, 300 mM imidazole, 5% glycerol; pH 7.5. Fractions containing PLK were determined by SDS-PAGE. Fractions containing PLK were diluted five-fold with 50 mM HEPES, 1 mM DTT, 5% glycerol; pH 7.5, then loaded on an SP Sepharose (Amersham Pharmacia) column. After washing the column with 50 mM HEPES, 1 mM DTT, 5% glycerol; pH 7.5, PLK was step eluted with 50 mM HEPES, 1 mM DTT, 500 mM NaCl; 5% glycerol; pH 7.5. PLK was concentrated using a 10 kDa molecular weight cutoff membrane and then loaded onto a Superdex 200 gel filtration (Amersham Pharmacia) column equilibrated in 25 mM HEPES, 1 mM DTT, 500 mM NaCl, 5% glycerol; pH 7.5. Fractions containing PLK were determined by SDS-PAGE. PLK was pooled, aliquoted and stored at −80° C. Samples were quality controlled using mass spectrometry, N-terminal sequencing and amino acid analysis.
B. Enzyme Activity +/− Inhibitors was Determined as Follows:
All measurements were obtained under conditions where signal production increased linearly with time and enzyme. Test compounds were added to white 384-well assay plates (0.1 μL for 10 μL and some 20 μL assays, 1 μL for some 20 μL assays) at variable known concentrations in 100% DMSO. DMSO (1-5% final, as appropriate) and EDTA (65 mM in reaction) were used as controls.
Reaction Mix (10 or 20 μL) was quickly added to each well immediately following addition of enzyme via automated liquid handlers and incubated 1-1.5 h at 22° C. The 20 μL enzymatic reactions were stopped with 50 μL of stop mix (50 mM EDTA, 4.0 mg/mL Streptavidin SPA beads in Standard Dulbecco's PBS (without Mg^2+ and Ca^2+), 50 μM ATP) per well. The 10 μL reactions were stopped with 10 μL of stop mix (50 mM EDTA, 3.0 mg/mL Streptavidin-coupled SPA Imaging Beads (“LeadSeeker”) in Standard Dulbecco's PBS (without Mg^2+ and Ca^2+), 50 μM ATP) per well. Plates were sealed with clear plastic seals, spun at 500×g for 1 min or settled overnight, and counted in Packard TopCount for 30 seconds/well (regular SPA) or imaged using a Viewlux imager (LeadSeeker SPA). Signal above background (EDTA controls) was converted to percent inhibition relative to that obtained in control (DMSO-only) wells.

[1] = test system: HCT-116 (human colon) cells; experiment: Cell-Titer Glo Cell Growth Inhibition Assay; format: cell-based; conditions: HCT-116 cells, 72 h incubation, CellTiter-Glo, read-out: HCT116 IC50
Experimental: A549-L (human lung), Colo 205 (human colon), HCT-116 (human colon), HT29 (human colon), MX-1 (human breast), SKOV3 (human ovary) and P388 (murine leukemia) cell lines were cultured in RPM11640 containing 10% fetal bovine serum at 37° C. in a 5% CO2 incubator. Cell lines were split into T75 flasks (Falcon #353136) two to three days prior to assay set up at density which yields approximately 70-80% confluency at time of harvest for assay. Cells were harvested using 0.25% trypsin with EDTA (Glibco/Invitrogen #25200-056), Cell counts were performed on cell suspensions using Trypan Blue exclusion staining, cells were then plated in 105 µL of culture media per well at the following densities in 96 well Costar #3916 black flat bottom plates: A549-L 500 cells/well, Colo205 500 cells/well, HCT-116 500 cells/well, HT29 500 cells/well, MX-1 500 cells/well, SKOV3 500 cells/well and P388 250 cells/well. All plates were placed at 5% CO2 37° C. overnight and then test compounds were added the following day. One plate of each cell type was treated with CellTiter-Glo (Promega #G7573) for a day 0 proliferation measurement and read as described below. The test compounds were prepared in clear U bottom polypropylene 96 well plates (Falcon #35-1190 with consecutive two fold dilutions. 9 uL of these dilutions was added into each well of the cell plates. The final concentration of DMSO in all wells was 0.15%. Cells were incubated at 37° C., 5% CO2 for 72 h. Following 72 h of incubation with compounds each plate was developed and read. CellTiter-Glo reagent was added to assay plates using a volume equivalent to the cell culture volume in the wells. Plates were shaken for approximately 2 min and incubated at rt for approximately 15 min and the chemiluminescent signal was read on the Victor V or Envison 2100 reader. […] Concentration of compound that inhibited 50% of cell growth (IC50) was analyzed by 4 or 6 parameter fit of data using XLfit, value of no cell addition was substracted from all samples for background.

T1 sequence (P53350 21-346): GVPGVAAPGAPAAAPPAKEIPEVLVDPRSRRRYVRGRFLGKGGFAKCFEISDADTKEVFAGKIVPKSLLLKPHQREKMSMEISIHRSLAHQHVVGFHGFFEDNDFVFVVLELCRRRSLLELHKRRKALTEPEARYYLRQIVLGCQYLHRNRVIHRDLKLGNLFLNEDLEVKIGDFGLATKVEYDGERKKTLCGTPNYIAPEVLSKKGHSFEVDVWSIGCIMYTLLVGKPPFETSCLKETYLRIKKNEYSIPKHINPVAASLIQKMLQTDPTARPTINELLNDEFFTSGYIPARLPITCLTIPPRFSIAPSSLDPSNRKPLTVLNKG

Compound | IC50 (PLK1 kinase domain) | IC50 [1]
C[C@@H](Oc1cc(-n2cnc3cc(-c4ccc(NCCCN5CCN(C)CC5)nn4)ccc32)sc1C(N)=O)c1ccccc1Cl [Example 34, 3-{[(1R)-1-(2-chlorophenyl)ethyl]oxy}-5-[5-(6-{[3-(4-methyl-1-piperazinyl)propyl]amino}-3-pyridazinyl)-1H-benzimidazol-1-yl]-2-thiophenecarboxamide] | < 100 nM | 500 to 1000 nM
C[C@@H](Oc1cc(-n2cnc3cc(-c4ccnc(NCCN)c4)ccc32)sc1C(N)=O)c1ccccc1C(F)(F)F [Example 6, 5-(5-{2-[(2-Aminoethyl)amino]-4-pyridinyl}-1H-benzimidazol-1-yl)-3-([(1R)-1-[2-(trifluoromethyl)phenyl]ethyl]oxy)-2-thiophenecarboxamide] | < 100 nM | < 500 nM
CNCCNc1ccc(-c2ccc3c(c2)ncn3-c2cc(O[C@H](C)c3ccccc3C(F)(F)F)c(C(N)=O)s2)cn1 [Example 26, 5-[5-(6-{[2-(methylamino)ethyl]amino}-3-pyridinyl)-1H-benzimidazol-1-yl]-3-({(1R)-1-[2-(trifluoromethyl)phenyl]ethyl}oxy)-2-thiophenecarboxamide] | < 100 nM | < 500 nM
C[C@@H](Oc1cc(-n2cnc3cc(-c4ccnc(NCCCN5CCN(C)CC5)c4)ccc32)sc1C(N)=O)c1ccccc1Cl [Example 11, 3-{[(1R)-1-(2-chlorophenyl)ethyl]oxy}-5-[5-(2-{[3-(4-methyl-1-piperazinyl)propyl]amino}-4-pyridinyl)-1H-benzimidazol-1-yl]-2-thiophenecarboxamide] | < 100 nM | < 500 nM
C[C@@H](Oc1cc(-n2cnc3cc(-c4ccc(NCCO)nc4)ccc32)sc1C(N)=O)c1ccccc1Cl [Example 28, 3-{[(1R)-1-(2-chlorophenyl)ethyl]oxy}-5-(5-[6-[(2-hydroxyethyl)amino]-3-pyridinyl]-1H-benzimidazol-1-yl)-2-thiophenecarboxamide] | < 100 nM | < 500 nM
C[C@@H](Oc1cc(-n2cnc3cc(-c4ccnc(N(C)CCN(C)C)c4)ccc32)sc1C(N)=O)c1ccccc1C(F)(F)F [Example 7, 5-(5-{2-[[2-(Dimethylamino)ethyl](methyl)amino]-4-pyridinyl}-1H-benzimidazol-1-yl)-3-({(1R)-1-[2-(trifluoromethyl)phenyl]ethyl}oxy)-2-thiophenecarboxamide] | < 100 nM | < 500 nM
C[C@@H](Oc1cc(-n2cnc3cc(-c4cnc(NCCN(C)C)nc4)ccc32)sc1C(N)=O)c1ccccc1Cl [Example 19, 3-{[(1R)-1-(2-Chlorophenyl)ethyl]oxy}-5-[5-(2-{[2-(dimethylamino)ethyl]amino}-5-pyrimidinyl)-1H-benzimidazol-1-yl]-2-thiophenecarboxamide] | < 100 nM | < 500 nM
C[C@@H](Oc1cc(-n2cnc3cc(-c4ccc(NCCN(C)C)nc4)ccc32)sc1C(N)=O)c1ccccc1Cl [Example 30, 3-{[(1R)-1-(2-chlorophenyl)ethyl]oxy}-5-[5-(6-{[2-(dimethylamino)ethyl]amino}-3-pyridinyl)-1H-benzimidazol-1-yl]-2-thiophenecarboxamide] | < 100 nM | < 500 nM

Further lines, results first:

IC50 (PLK1 kinase domain) | IC50 [1] | Compound
< 100 nM | < 500 nM | C[C@@H](Oc1cc(-n2cnc3cc(-c4cnc(N(C)CCN(C)C)nc4)ccc32)sc1C(N)=O)c1ccccc1Cl [Example 21, 3-{[(1R)-1-(2-chlorophenyl)ethyl]oxy}-5-(5-{2-[[2-(dimethylamino)ethyl](methyl)amino]-5-pyrimidinyl}-1H-benzimidazol-1-yl)-2-thiophenecarboxamide]
< 100 nM | < 500 nM | CC(C)[C@H](N)C(=O)OCCNc1cc(-c2ccc3c(c2)ncn3-c2cc(O[C@H](C)c3ccccc3Cl)c(C(N)=O)s2)ccn1 [Example 15, 2-({4-[1-(5-(Aminocarbonyl)-4-{[(1R)-1-(2-chlorophenyl)ethyl]oxy}-2-thienyl)-1H-benzimidazol-5-yl]-2-pyridinyl}amino)ethyl L-valinate]
 | < 500 nM | C[C@@H](Oc1cc(-n2cnc3cc(-c4ccnc(NCCN(C)C)c4)ccc32)sc1C(N)=O)c1ccccc1C(F)(F)F [Example 1, 5-[5-(2-{[2-(Dimethylamino)ethyl]amino}-4-pyridinyl)-1H-benzimidazol-1-yl]-3-({(1R)-1-[2-(trifluoromethyl)phenyl]ethyl}oxy)-2-thiophenecarboxamide]
< 100 nM | < 500 nM | C[C@@H](Oc1cc(-n2cnc3cc(-c4cnc(NCCN5CCOCC5)nc4)ccc32)sc1C(N)=O)c1ccccc1Cl [Example 22, 3-{[(1R)-1-(2-chlorophenyl)ethyl]oxy}-5-[5-(2-{[2-(4-morpholinyl)ethyl]amino}-5-pyrimidinyl)-1H-benzimidazol-1-yl]-2-thiophenecarboxamide]
< 100 nM | < 500 nM | C[C@@H](Oc1cc(-n2cnc3cc(-c4cnc(NCCCN(C)C)nc4)ccc32)sc1C(N)=O)c1ccccc1Cl [Example 18, 3-{[(1R)-1-(2-Chlorophenyl)ethyl]oxy}-5-[5-(2-{[3-(dimethylamino)propyl]amino}-5-pyrimidinyl)-1H-benzimidazol-1-yl]-2-thiophenecarboxamide]
< 100 nM | < 500 nM | C[C@@H](Oc1cc(-n2cnc3cc(-c4ccc(N(C)CCCN(C)C)nc4)ccc32)sc1C(N)=O)c1ccccc1Cl [Example 33, 3-{[(1R)-1-(2-chlorophenyl)ethyl]oxy}-5-(5-[6-[[3-(dimethylamino)propyl](methyl)amino]-3-pyridinyl]-1H-benzimidazol-1-yl)-2-thiophenecarboxamide]
 | < 500 nM | C[C@@H](Oc1cc(-n2cnc3cc(-c4ccnc(NCCO)c4)ccc32)sc1C(N)=O)c1ccccc1Cl [Example 14, 3-{[(1R)-1-(2-chlorophenyl)ethyl]oxy}-5-(5-{2-[(2-hydroxyethyl)amino]-4-pyridinyl}-1H-benzimidazol-1-yl)-2-thiophenecarboxamide]
< 100 nM | < 500 nM | C[C@@H](Oc1cc(-n2cnc3cc(-c4cnc(NCCCN5CCN(C)CC5)nc4)ccc32)sc1C(N)=O)c1ccccc1Cl [Example 20, 3-{[(1R)-1-(2-Chlorophenyl)ethyl]oxy}-5-[5-(2-{[3-(4-methyl-1-piperazinyl)propyl]amino}-5-pyrimidinyl)-1H-benzimidazol-1-yl]-2-thiophenecarboxamide]
< 100 nM | < 500 nM | C[C@@H](Oc1cc(-n2cnc3cc(-c4ccc(NC(=O)CN5CCOCC5)cc4)ccc32)sc1C(N)=O)c1ccccc1Cl [Example 24, 3-{[(1R)-1-(2-chlorophenyl)ethyl]oxy}-5-(5-[4-[(4-morpholinylacetyl)amino]phenyl]-1H-benzimidazol-1-yl)-2-thiophenecarboxamide]
